Brc1cc(Br)cc(Br)c1
solubility (mole fraction)
Details | 288.15 K | 293.15 K | 298.15 K | 303.15 K | 308.15 K | 313.15 K | 318.15 K | 323.15 K | 328.15 K
in 1,4-dioxane | 0.0656 | 0.0742 | 0.0851 | 0.0972 | 0.111 | 0.123 | 0.141 | 0.157 | 0.178
in DMAc | 0.0159 | 0.0195 | 0.024 | 0.0292 | 0.0346 | 0.041 | 0.0491 | 0.0582 | 0.0683
in DMF | 0.00998 | 0.0127 | 0.0161 | 0.0202 | 0.0244 | 0.0295 | 0.0355 | 0.044 | 0.0521

Reference: BigSolDB 2.1
